Our source for the IC50 values is patent US12649751B2 (Arcus Biosciences, Inc., priority 2022, dated 2026).

The target of one assay is HPK1 (Homo sapiens, UniProt Q92918). Briefly: HPK1 Biochemical Assay (ADP-Glo luminescence; low ATP 10 μM or high ATP 200 μM). The conditions noted are these: HPK1 ADP-Glo assay. (In general: ADP-Glo first removes unused ATP, then detects ADP through luciferase.)
Assay [1] concerns p-SLP-76 (Ser376) in Jurkat cells. Kind of assay: pSLP76 Cellular Assay (AlphaLISA SureFire Ultra p-SLP-76 (Ser376), anti-CD3 activated Jurkat cells). The format is cell-based. The conditions noted are these: pSLP76 (Ser376) AlphaLISA, anti-CD3 activated Jurkat cells, read-out: Cellular Potency. The method in brief:
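Read-out is AlphaLISA p-SLP-76 (Ser376) signal at 570 nm in Jurkat lysates, with IC50 fitted by 4-parameter logistic. Cells were starved overnight, exposed 1 h at 37 °C to 22 twofold compound dilutions in HBSS, then activated 45 min with anti-CD3 (0.025 mg/ml stock added).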

The mark [2] stands for this setting: high ATP (200 μM ATP, 5 nM HPK1), read-out: Biochemical Potency (high ATP).
Setting [3] is: low ATP (10 μM ATP, 2 nM HPK1), read-out: Biochemical Potency (low ATP).

Where two headings read alike, the source gives them in different places.

Sequence of HPK1 (Q92918 whole entry, species assumed): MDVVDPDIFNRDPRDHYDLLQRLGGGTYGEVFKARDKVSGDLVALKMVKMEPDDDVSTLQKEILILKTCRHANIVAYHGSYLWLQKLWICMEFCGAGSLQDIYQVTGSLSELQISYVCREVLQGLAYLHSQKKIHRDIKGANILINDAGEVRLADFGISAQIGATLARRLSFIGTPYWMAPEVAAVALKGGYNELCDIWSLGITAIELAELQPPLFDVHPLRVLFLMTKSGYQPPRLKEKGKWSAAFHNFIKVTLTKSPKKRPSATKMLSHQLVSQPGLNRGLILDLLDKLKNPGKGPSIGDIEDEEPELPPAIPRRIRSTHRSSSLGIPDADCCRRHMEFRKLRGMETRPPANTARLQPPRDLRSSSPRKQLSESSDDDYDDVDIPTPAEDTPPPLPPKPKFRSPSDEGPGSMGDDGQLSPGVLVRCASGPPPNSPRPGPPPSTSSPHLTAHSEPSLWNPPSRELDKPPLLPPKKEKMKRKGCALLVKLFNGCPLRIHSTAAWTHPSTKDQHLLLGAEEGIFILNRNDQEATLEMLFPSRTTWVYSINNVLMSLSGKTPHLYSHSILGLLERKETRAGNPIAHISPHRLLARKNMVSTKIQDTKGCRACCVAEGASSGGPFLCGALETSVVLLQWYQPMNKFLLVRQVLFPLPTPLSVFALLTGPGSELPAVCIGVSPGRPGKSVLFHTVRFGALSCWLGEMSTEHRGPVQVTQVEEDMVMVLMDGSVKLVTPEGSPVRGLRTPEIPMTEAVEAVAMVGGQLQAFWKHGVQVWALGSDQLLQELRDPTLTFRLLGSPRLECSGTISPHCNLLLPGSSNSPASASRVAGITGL

As to `c1cc(Nc2cc3nc(-c4ncco4)sc3cn2)nc(N2C[C@@H]3C[C@H]2CN3)n1` [Example 409], the IC50 at HPK1 (setting [2]) was less than 100 nM; on HPK1 (setting [3]), less than 100 nM; in assay [1] (Homo sapiens), 100 to 1000 nM.
In the case of `CN1C[C@@H]2C[C@H]1CN2c1cncc(Nc2cc3nc(-c4cccc(C(C)(O)C(F)(F)F)c4)sc3cn2)n1` (stereo partly shown) [Example 410], the IC50 was less than 100 nM at HPK1 (setting [2]), less than 100 nM at HPK1 (setting [3]) and 100 to 1000 nM in assay [1] (Homo sapiens).
With `CN1C[C@@H]2C[C@H]1CN2c1cncc(Nc2cc3nc(-c4cccc(NS(C)(=O)=O)c4)sc3cn2)n1` [Example 412], the IC50 is less than 100 nM at HPK1 (setting [2]), less than 100 nM on HPK1 (setting [3]) and 100 to 1000 nM in assay [1] (Homo sapiens).
Regarding `CN1C[C@@H]2C[C@H]1CN2c1nccc(Nc2cc3nc(-c4cccc(NS(C)(=O)=O)c4)sc3cn2)n1` [Example 413], the IC50 at HPK1 (setting [2]) is less than 100 nM; at HPK1 (setting [3]), less than 100 nM; in assay [1] (Homo sapiens), 1000 to 5000 nM.
As to `CN1C[C@@H]2C[C@H]1CN2c1cncc(Nc2cc3nc(-c4cccc(S(=O)(=O)N(C)C)c4)sc3cn2)n1` [Example 414], the IC50 is less than 100 nM at HPK1 (setting [3]) and 1000 to 5000 nM in assay [1] (Homo sapiens).
For `CN1C[C@@H]2C[C@H]1CN2c1nccc(Nc2cc3nc(-c4cccc(S(=O)(=O)N(C)C)c4)sc3cn2)n1` [Example 415] the same measures were less than 100 nM and 100 to 1000 nM.
As for `CNS(=O)(=O)c1cccc(-c2nc3cc(Nc4cncc(N5C[C@@H]6C[C@H]5CN6C)n4)ncc3s2)c1` [Example 416], the IC50 at HPK1 (setting [3]) is less than 100 nM; in assay [1] (Homo sapiens), 100 to 1000 nM.
Take `CCN1C[C@@H]2C[C@H]1CN2c1nc(C)cc(Nc2cc3nc(-c4cncc(OCC5CC5)c4)sc3cn2)n1` [Example 422]: the IC50 at HPK1 (setting [2]) is less than 100 nM; in assay [1] (Homo sapiens) it was 100 to 1000 nM.
For `CC(=O)Nc1cccc(-c2nc3cc(Nc4cc(C)nc(N5C[C@@H]6C[C@H]5CN6C)n4)ncc3s2)c1` [Example 423] the same measures were less than 100 nM and 100 to 1000 nM.
As to `OCCN1C[C@@H]2C[C@H]1CN2c1nc(Nc2cc3nc(-c4cnn(CC5CC5)c4)sc3cn2)ccc1F` [Example 424], the IC50 at HPK1 (setting [2]) is less than 100 nM; in assay [1] (Homo sapiens), 100 to 1000 nM.
For `CCN1C[C@@H]2C[C@H]1CN2c1nc(C)cc(Nc2cc3nc(N[C@H](C)c4ccccc4)sc3cn2)n1` [Example 425] the same measures were less than 100 nM and 1000 to 5000 nM.
For the compound `Cc1cc(Nc2cc3nc(-n4cc(F)cn4)sc3cn2)nc(N2C[C@@H]3C[C@H]2CN3C)n1` [Example 429], the IC50 on HPK1 (setting [2]) is less than 100 nM; in assay [1] (Homo sapiens), 100 to 1000 nM.
Turning to `c1cnn(-c2nc3cc(Nc4cncc(N5C[C@@H]6C[C@H]5CN6)n4)ncc3s2)c1` [Example 430], the results for the IC50 (on HPK1 (setting [2]); at HPK1 (setting [3]); in assay [1] (Homo sapiens)) were less than 100 nM, less than 100 nM and 100 to 1000 nM, respectively.
With `c1cnn(-c2nc3cc(Nc4ccnc(N5C[C@@H]6C[C@H]5CN6)n4)ncc3s2)c1` [Example 431], the IC50 at HPK1 (setting [2]) is less than 100 nM; on HPK1 (setting [3]) it was less than 100 nM; in assay [1] (Homo sapiens), 100 to 1000 nM.
For the compound `Cc1cccnc1-c1nc2cc(Nc3ccc(C4CCOCC4)c(N4C[C@@H]5C[C@H]4CN5)n3)ncc2s1` [Example 432], the IC50 (at HPK1 (setting [3]); in assay [1] (Homo sapiens)) was less than 100 nM each time.
For `Cc1cccnc1-c1nc2cc(Nc3ccc(C4CCOCC4)c(N4C[C@@H]5C[C@H]4CN5C)n3)ncc2s1` [Example 433], the IC50 (at HPK1 (setting [3]); in assay [1] (Homo sapiens)) was less than 100 nM in each case.
Turning to `Cc1cccnc1-c1nc2cc(Nc3cc(-c4cnccc4C#N)cc(N4C[C@@H]5C[C@H]4CN5C)n3)ncc2s1` [Example 434], the IC50 at HPK1 (setting [2]) was less than 100 nM; in assay [1] (Homo sapiens), 100 to 1000 nM.
For `Cc1cccnc1-c1nc2cc(Nc3cc(C(C)C)nc(N4C[C@@H]5C[C@H]4CN5)n3)ncc2s1` [Example 435] the same measures were less than 100 nM and 100 to 1000 nM.
Turning to `Cc1cccnc1-c1nc2cc(Nc3cc(C4CC4)nc(N4C[C@@H]5C[C@H]4CN5C)n3)ncc2s1` [Example 436], the figures for the IC50 (at HPK1 (setting [2]); in assay [1] (Homo sapiens)) were less than 100 nM and 100 to 1000 nM, respectively.
As to `CN1C[C@@H]2C[C@H]1CN2c1nc(Nc2cc3nc(-c4cncc(C(C)(C)O)c4)sc3cn2)cc(C2CCOCC2)n1` [Example 438], the IC50 at HPK1 (setting [3]) was less than 100 nM; in assay [1] (Homo sapiens), 100 to 1000 nM.
Consider `CN1C[C@@H]2C[C@H]1CN2c1nc(Nc2cc3nc(-c4cccc(C(C)(C)O)c4)sc3cn2)cc(C2CCOCC2)n1` [Example 440], for which the IC50 (at HPK1 (setting [2]); at HPK1 (setting [3]); in assay [1] (Homo sapiens)) was less than 100 nM in each case.
On to `CS(=O)(=O)c1cccc(-c2nc3cc(Nc4cc(C5CCOCC5)nc(N5C[C@@H]6C[C@H]5CN6)n4)ncc3s2)c1` [Example 443], for which the IC50 (on HPK1 (setting [2]); at HPK1 (setting [3]); in assay [1] (Homo sapiens)) was less than 100 nM throughout.
With `Cc1cccnc1-c1nc2cc(Nc3cc(C4CCOCC4)nc(N4C[C@@H]5C[C@H]4CN5)n3)ncc2s1` [Example 444], the IC50 (on HPK1 (setting [3]); in assay [1] (Homo sapiens)) was less than 100 nM in each case.
For the compound `Cc1cc(Nc2cc3nc(-c4ccnc(N5C[C@@H](C)O[C@@H](C)C5)c4)sc3cn2)nc(N2C[C@@H]3C[C@H]2CN3CCO)n1` [Example 445], the IC50 at HPK1 (setting [2]) was less than 100 nM; in assay [1] (Homo sapiens), 100 to 1000 nM.
Consider `Cc1cc(Nc2cc3nc(-c4ccnc(N5CCO[C@@H](C)C5)c4)sc3cn2)nc(N2C[C@@H]3C[C@H]2CN3CCO)n1` [Example 446], for which the values for the IC50 (at HPK1 (setting [2]); in assay [1] (Homo sapiens)) were less than 100 nM and 100 to 1000 nM, respectively.
For `Cc1cc(Nc2cc3nc(-c4ccnc(N5C6CCC5COC6)c4)sc3cn2)nc(N2C[C@@H]3C[C@H]2CN3CCO)n1` [Example 447], the IC50 (at HPK1 (setting [2]); in assay [1] (Homo sapiens)) was less than 100 nM in each case.
For the compound `Cc1cc(Nc2cc3nc(-c4ccnc(N5CC6CCC(C5)O6)c4)sc3cn2)nc(N2C[C@@H]3C[C@H]2CN3CCO)n1` [Example 448], the values for the IC50 (on HPK1 (setting [2]); in assay [1] (Homo sapiens)) were less than 100 nM and 100 to 1000 nM, respectively.
With `Cc1cc(Nc2cc3nc(-c4ccnc(N5CCCOCC5)c4)sc3cn2)nc(N2C[C@@H]3C[C@H]2CN3CCO)n1` [Example 449], the IC50 on HPK1 (setting [2]) was less than 100 nM; in assay [1] (Homo sapiens) it was 100 to 1000 nM.
Regarding `Cc1cc(Nc2cc3nc(-c4ccnc(N5CCOC[C@H]5C)c4)sc3cn2)nc(N2C[C@@H]3C[C@H]2CN3CCO)n1` [Example 450], the IC50 (on HPK1 (setting [2]); in assay [1] (Homo sapiens)) was less than 100 nM throughout.
With `Cc1cc(Nc2cc3nc(-c4ccnc(N5CCO[C@H](C)C5)c4)sc3cn2)nc(N2C[C@@H]3C[C@H]2CN3CCO)n1` [Example 451], the IC50 was less than 100 nM at HPK1 (setting [2]) and 100 to 1000 nM in assay [1] (Homo sapiens).
For `Cc1cc(Nc2cc3nc(-c4ccnc(N5C[C@H]6COC[C@H]6C5)c4)sc3cn2)nc(N2C[C@@H]3C[C@H]2CN3CCO)n1` [Example 452] the same measures were less than 100 nM and 100 to 1000 nM.
`CO[C@@H]1CCN(c2cc(-c3nc4cc(Nc5cc(C)nc(N6C[C@@H]7C[C@H]6CN7CCO)n5)ncc4s3)ccn2)C1` [Example 453]: the IC50 at HPK1 (setting [2]) was less than 100 nM; in assay [1] (Homo sapiens) it was 100 to 1000 nM.
For `CO[C@H]1CCN(c2cc(-c3nc4cc(Nc5cc(C)nc(N6C[C@@H]7C[C@H]6CN7CCO)n5)ncc4s3)ccn2)C1` [Example 454] the same measures were less than 100 nM and 100 to 1000 nM.
The corresponding values for `Cc1cc(Nc2cc3nc(-c4ccnc(N5CCOC[C@H]5C)c4)sc3cn2)nc(N2C[C@@H]3C[C@H]2CN3C)n1` [Example 455] are less than 100 nM and 100 to 1000 nM.
For `COC1CCN(c2cc(-c3nc4cc(Nc5cc(C)nc(N6C[C@@H]7C[C@H]6CN7C)n5)ncc4s3)ccn2)CC1` [Example 456] the same measures were less than 100 nM and 1000 to 5000 nM.
Consider `Cc1cc(Nc2cc3nc(-c4ccnc(N5C[C@H]6COC[C@H]6C5)c4)sc3cn2)nc(N2C[C@@H]3C[C@H]2CN3C)n1` [Example 457], for which the IC50 is less than 100 nM on HPK1 (setting [2]) and 100 to 1000 nM in assay [1] (Homo sapiens).
On to `Cc1cc(Nc2cc3nc(-c4ccnc(N5CCOCC5)c4)sc3cn2)nc(N2C[C@@H]3C[C@H]2CN3CCO)n1` [Example 458], for which the IC50 is less than 100 nM at HPK1 (setting [2]) and 100 to 1000 nM in assay [1] (Homo sapiens).
For the compound `CN1C[C@@H]2C[C@H]1CN2c1nccc(Nc2cc3nc(-c4ccnc(N5CCOCC5)c4)sc3cn2)n1` [Example 460], the IC50 at HPK1 (setting [3]) was less than 100 nM; in assay [1] it was 100 to 1000 nM.
With `CN1C[C@@H]2C[C@H]1CN2c1nccc(Nc2cc3nc(-c4ccnc(N5CC[C@@H](O)C5)c4)sc3cn2)n1` [Example 464], the figures for the IC50 (at HPK1 (setting [3]); in assay [1]) were less than 100 nM and 100 to 1000 nM, respectively.
As to `CCN1C[C@@H]2C[C@H]1CN2c1nc(C)cc(Nc2cc3nc(-c4cc(C)cc(N5C(=O)CC[C@H]5C)c4)sc3cn2)n1` [Example 466], the IC50 on HPK1 (setting [2]) was less than 100 nM; in assay [1] (Homo sapiens) it was 100 to 1000 nM.
The corresponding values for `Cc1cc(Nc2cc3nc(-c4c(C)ccc(C(C)(C)O)c4C)sc3cn2)nc(N2C[C@@H]3C[C@H]2CN3C)n1` [Example 467] are less than 100 nM and less than 100 nM.
For `Cc1cc(Nc2cc3nc(-c4ncccc4OC(F)F)sc3cn2)nc(N2C[C@@H]3C[C@H]2CN3C)n1` [Example 468] the same measures were less than 100 nM and 100 to 1000 nM.
In the case of `COc1cccnc1-c1nc2cc(Nc3cc(C)nc(N4C[C@@H]5C[C@H]4CN5C)n3)ncc2s1` [Example 469], the IC50 on HPK1 (setting [2]) was less than 100 nM; in assay [1] (Homo sapiens) it was 100 to 1000 nM.
